Test results from patent publication US6376497B1, “Antifungal azole derivatives having a fluorinated vinyl group and process for preparing same” (Korea Research Institute of Chemical Technology, priority 1999, dated 2002).

Assays:
Experiment in all cases: In vitro antifungal activity, microbroth dilution MIC
Assay type in all cases: cell-based
Conditions in all cases: RPMI-1640, 35° C., 4 to 48 hours, no growth observed
[1] = tested on: Cryptococcus neoformans A. 34144
Outline: (§1)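 Broth microdilution adapted from NCCLS M27, in RPMI-1640 with 0.165 M MOPS, pH 7.0. Yeast or mould inoculum at 2×10^3 CFU/ml was mixed 1:1 with DMSO-derived compound solutions (200 to 0.10 μg/ml before mixing) and incubated at 35 °C for 4 to 48 h. MIC was the concentration showing no growth.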

[2] = tested on: Candida tropicalis A. 13803
Outline: as §1

[3] = tested on: Candida albicans A. 10231
Outline: as §1

Candida krusei K. 11655 = tested on: Candida krusei K. 11655
Outline: as §1

[4] = tested on: Aspergillus furnigatus B. 19119
Outline: as §1

[5] = tested on: Torulopsis glabrata B. 16205
Outline: as §1

[6] = tested on: Cryptococcus neoformans B. 42419
Outline: as §1

[7] = tested on: Candida pseudotropicalis K. 11658
Outline: as §1

[8] = tested on: Trichophyton mentagrophytes B. 32663
Outline: as §1

[9] = tested on: Cryptococcus neoformans IFM. 40092
Outline: as §1

[10] = tested on: Aspergillus niger A. 16404
Outline: as §1

[11] = tested on: Trichophyton mentagrophytes A. 9129
Outline: as §1

[12] = tested on: Candida parapsitosis A. 7330
Outline: as §1

[13] = tested on: Candida albicans IFO. 1385
Outline: as §1

Candida albicans C1-2 = tested on: Candida albicans C1-2
Outline: as §1

Structure (SMILES) | Minimal inhibitory concentration(MIC), Cry. neoformans A. 34144 [1] | Minimal inhibitory concentration(MIC), C. tropicalis A. 13803 [2] | Minimal inhibitory concentration(MIC), C. albicans A. 10231 [3] | Minimal inhibitory concentration(MIC), C. krusei K. 11655 (Candida krusei K. 11655) | Minimal inhibitory concentration(MIC), A furnigatus B. 19119 [4] | Minimal inhibitory concentration(MIC), T. glabrata B. 16205 [5] | Minimal inhibitory concentration(MIC), Cry. neoformans B. 42419 [6] | Minimal inhibitory concentration(MIC), C. pseudotropicalis K. 11658 [7] | Minimal inhibitory concentration(MIC), T. mentagrophytes B. 32663 [8] | Minimal inhibitory concentration(MIC), Cry. neoformans IFM. 40092 [9] | Minimal inhibitory concentration(MIC), A. niger A. 16404 [10] | Minimal inhibitory concentration(MIC), T. mentagrophytes A. 9129 [11] | Minimal inhibitory concentration(MIC), C. parapsitosis A. 7330 [12] | Minimal inhibitory concentration(MIC), C. albicans IFO. 1385 [13] | Minimal inhibitory concentration(MIC), C. albicans C1-2 (Candida albicans C1-2)
FC(=C(c1cccc(Cl)c1)C(F)(F)F)N1CCN(c2ccc(OCC3COC(Cn4ccnc4)(c4ccc(Cl)cc4Cl)O3)cc2)CC1 (mixture of isomers) [Ex. 133] | 0.78 µg/mL | >100 µg/mL | >100 µg/mL | 1.56 µg/mL | >100 µg/mL | >100 µg/mL | 0.39 µg/mL | 1.56 µg/mL | 1.56 µg/mL | 0.20 µg/mL | >100 µg/mL | 6.25 µg/mL | 3.13 µg/mL | 3.13 µg/mL | >100 µg/mL
FC(=C(c1ccc(Cl)cc1)C(F)(F)F)N1CCN(c2ccc(OCC3COC(Cn4ccnc4)(c4ccc(Cl)cc4Cl)O3)cc2)CC1 (mixture of isomers) [Ex. 134] | 0.39 µg/mL | >100 µg/mL | >100 µg/mL | 1.56 µg/mL | >100 µg/mL | >100 µg/mL | 0.78 µg/mL | 1.56 µg/mL | 1.56 µg/mL | 0.20 µg/mL | >100 µg/mL | 6.25 µg/mL | 3.13 µg/mL | 1.56 µg/mL | >100 µg/mL
FC(=C(c1ccc(F)cc1)C(F)(F)F)N1CCN(c2ccc(OCC3COC(Cn4ccnc4)(c4ccc(Cl)cc4Cl)O3)cc2)CC1 (mixture of isomers) [Ex. 135] | 0.39 µg/mL | >100 µg/mL | >100 µg/mL | 1.56 µg/mL | >100 µg/mL | >100 µg/mL | 0.78 µg/mL | 1.56 µg/mL | 1.56 µg/mL | 0.20 µg/mL | >100 µg/mL | 3.13 µg/mL | 1.56 µg/mL | 1.56 µg/mL | >100 µg/mL
FC(=C(c1cc(Cl)cc(Cl)c1)C(F)(F)F)N1CCN(c2ccc(OCC3COC(Cn4ccnc4)(c4ccc(Cl)cc4Cl)O3)cc2)CC1 (mixture of isomers) [Ex. 136] | >100 µg/mL | >100 µg/mL | >100 µg/mL | >100 µg/mL | >100 µg/mL | >100 µg/mL | >100 µg/mL | >100 µg/mL | >100 µg/mL | 1.56 µg/mL | >100 µg/mL | >100 µg/mL | >100 µg/mL | >100 µg/mL | >100 µg/mL
FC(=C(c1ccccc1)C(F)(F)F)N1CCN(c2ccc(OCC3COC(Cn4ccnc4)(c4ccc(F)cc4F)O3)cc2)CC1 (mixture of isomers) [Ex. 138] | 0.78 µg/mL | >100 µg/mL | >100 µg/mL | 1.56 µg/mL | 12.5 µg/mL | 100 µg/mL | 0.78 µg/mL | 1.56 µg/mL | ≦0.10 μg/ml | ≦0.10 μg/ml | 100 µg/mL | 3.13 µg/mL | 0.78 µg/mL | 0.78 µg/mL | >100 µg/mL
Cc1cccc(C(=C(F)N2CCN(c3ccc(OCC4COC(Cn5ccnc5)(c5ccc(F)cc5F)O4)cc3)CC2)C(F)(F)F)c1 (mixture of isomers) [Ex. 139] | 0.78 µg/mL | >100 µg/mL | >100 µg/mL | 1.56 µg/mL | 25.0 µg/mL | 100 µg/mL | 0.78 µg/mL | 1.56 µg/mL | 0.39 µg/mL | ≦0.10 μg/ml | 100 µg/mL | 6.25 µg/mL | 0.78 µg/mL | 0.78 µg/mL | >100 µg/mL
CCCCc1ccc(C(=C(F)N2CCN(c3ccc(OCC4COC(Cn5ccnc5)(c5ccc(F)cc5F)O4)cc3)CC2)C(F)(F)F)cc1 (mixture of isomers) [Ex. 140] | 1.56 µg/mL | >100 µg/mL | >100 µg/mL | 3.13 µg/mL | 50.0 µg/mL | 100 µg/mL | 1.56 µg/mL | 1.56 µg/mL | 0.39 µg/mL | 0.39 µg/mL | >100 µg/mL | 12.5 µg/mL | 1.56 µg/mL | 1.56 µg/mL | >100 µg/mL
